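Step 1: Grow cells in 96-well plates. Step 2: Expose to compound for 48 hours at 5 concentrations. Step 3: Interpolate endpoints linearly; if unreached, use highest concentration. Here, GI50 denotes the concentration required for 50% inhibition of growth.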 Active and inactive are the calls of the source. Rule as the data show it: active = GI50 up to about 1.1 µM and inactive = higher.
Tests used:
Experiment in all cases: NCI tumour cell line growth inhibition, 48 h
786-0 = tested on: 786-0
A498 = tested on: A498
A549 = tested on: A549
ACHN = tested on: ACHN
CCRF-CEM = tested on: CCRF-CEM
COLO 205 = tested on: COLO 205
DLD-1 = tested on: DLD-1
DMS-114 = tested on: DMS-114
EKVX = tested on: EKVX
HCC 2998 = tested on: HCC 2998
HCT-116 = tested on: HCT-116
HCT-15 = tested on: HCT-15
HL-60 = tested on: HL-60
HOP-18 = tested on: HOP-18
HOP-62 = tested on: HOP-62
HOP-92 = tested on: HOP-92
HT-29 = tested on: HT-29
IGROV-1 = tested on: IGROV-1
K562 = tested on: K562
KM-20L2 = tested on: KM-20L2
KM12 = tested on: KM12
LOX IMVI = tested on: LOX IMVI
LXFL 529 = tested on: LXFL 529
M14 = tested on: M14
M19-MEL = tested on: M19-MEL
MOLT-4 = tested on: MOLT-4
Malme-3M = tested on: Malme-3M
NCI-H226 = tested on: NCI-H226
NCI-H23 = tested on: NCI-H23
NCI-H460 = tested on: NCI-H460
NCI-H522 = tested on: NCI-H522
OVCAR-3 = tested on: OVCAR-3
OVCAR-5 = tested on: OVCAR-5
OVCAR-8 = tested on: OVCAR-8
RPMI-8226 = tested on: RPMI-8226
RXF 393 = tested on: RXF 393
RXF 631 = tested on: RXF 631
SF-268 = tested on: SF-268
SF-295 = tested on: SF-295
SF-539 = tested on: SF-539
SK-MEL-28 = tested on: SK-MEL-28
SK-MEL-2 = tested on: SK-MEL-2
SK-MEL-5 = tested on: SK-MEL-5
SK-OV-3 = tested on: SK-OV-3
SN12C = tested on: SN12C
SNB-19 = tested on: SNB-19
SNB-75 = tested on: SNB-75
SR = tested on: SR
SW-620 = tested on: SW-620
TK-10 = tested on: TK-10
U-251 = tested on: U-251
UACC-257 = tested on: UACC-257
UACC-62 = tested on: UACC-62
UO-31 = tested on: UO-31
XF498 = tested on: XF498
CAKI-1 = tested on: CAKI-1
DMS-273 = tested on: DMS-273
OVCAR-4 = tested on: OVCAR-4
SNB-78 = tested on: SNB-78

In the case of `CC1=Nc2ccccc2C1C(Cc1ccccc1N)c1c(C)[nH]c2ccccc12` (stereo not drawn), the GI50 (786-0) is reported as 15.1 µM (inactive), the GI50 (A498) is reported as 16 µM (inactive) and the GI50 (A549) is reported as 18.3 µM (inactive). The GI50 (ACHN) was 15.2 µM (inactive), the GI50 (CCRF-CEM) was 17.7 µM (inactive) and the GI50 (COLO 205) was 16.6 µM (inactive). The GI50 (DLD-1) was 18.2 µM (inactive), the GI50 (DMS-114) was 19.2 µM (inactive) and the GI50 (EKVX) was 20.5 µM (inactive). The GI50 (HCC 2998) was 15.4 µM (inactive), the GI50 (HCT-116) was 16.9 µM (inactive) and the GI50 (HCT-15) was 16.4 µM. For the same compound, the GI50 (HL-60) was 14 µM (inactive), the GI50 (HOP-18) was 12.4 µM (inactive) and the GI50 (HOP-62) was 14.4 µM (inactive). The GI50 (HOP-92) was 12.3 µM (inactive), the GI50 (HT-29) was 17.8 µM (inactive) and the GI50 (IGROV-1) was 17.4 µM (inactive). The GI50 (K562) was 19.5 µM (inactive), the GI50 (KM-20L2) was 15 µM (inactive) and the GI50 (KM12) was 16.6 µM (inactive). For the same compound, the GI50 (LOX IMVI) was 15 µM (inactive), the GI50 (LXFL 529) was 16 µM (inactive) and the GI50 (M14) was 15 µM (inactive). For the same compound, the GI50 (M19-MEL) was 17.4 µM (inactive), the GI50 (MOLT-4) was 20.9 µM (inactive) and the GI50 (Malme-3M) was 17.3 µM (inactive). For the same compound, the GI50 (NCI-H226) was 15 µM (inactive), the GI50 (NCI-H23) was 18.2 µM (inactive) and the GI50 (NCI-H460) was 17.2 µM (inactive). The GI50 (NCI-H522) was 14 µM (inactive), the GI50 (OVCAR-3) was 15.1 µM (inactive) and the GI50 (OVCAR-5) was 17.6 µM (inactive). For the same compound, the GI50 (OVCAR-8) was 16.6 µM (inactive), the GI50 (RPMI-8226) was 18.5 µM (inactive) and the GI50 (RXF 393) was 20.2 µM (inactive). The GI50 (RXF 631) was 18.2 µM (inactive), the GI50 (SF-268) was 8.17 µM (inactive) and the GI50 (SF-295) was 12.6 µM (inactive). The GI50 (SF-539) was 17.6 µM (inactive), the GI50 (SK-MEL-28) was 18.8 µM (inactive) and the GI50 (SK-MEL-2) was 5.92 µM (inactive). The GI50 (SK-MEL-5) was 14.6 µM (inactive), the GI50 (SK-OV-3) was 24.6 µM (inactive) and the GI50 (SN12C) was 18.7 µM (inactive). The GI50 (SNB-19) was 22.7 µM (inactive), the GI50 (SNB-75) was 17.5 µM (inactive) and the GI50 (SR) was 21.9 µM (inactive). The GI50 (SW-620) was 15.5 µM (inactive), the GI50 (TK-10) was 16.9 µM (inactive) and the GI50 (U-251) was 16.8 µM (inactive). For the same compound, the GI50 (UACC-257) was 17.8 µM (inactive), the GI50 (UACC-62) was 13.5 µM (inactive) and the GI50 (UO-31) was 14.7 µM (inactive). For the same compound, the GI50 (XF498) was 18.5 µM (inactive).
For `Cc1ccc(C)c(NC(=O)CC2C(=O)Nc3ccccc3S2(=O)=O)c1` (stereo not drawn), the GI50 (786-0) was 22.8 µM (inactive), the GI50 (A498) was 30.2 µM (inactive) and the GI50 (A549) was > 100 µM (inactive). For the same compound, the GI50 (ACHN) was 48.2 µM (inactive), the GI50 (CAKI-1) was 31.8 µM (inactive) and the GI50 (CCRF-CEM) was > 100 µM (inactive). For the same compound, the GI50 (DLD-1) was > 100 µM (inactive), the GI50 (DMS-114) was 45.4 µM (inactive) and the GI50 (DMS-273) was 28.1 µM (inactive). The GI50 (EKVX) was 31.2 µM (inactive), the GI50 (HCC 2998) was 77.8 µM (inactive) and the GI50 (HCT-116) was 52.2 µM (inactive). The GI50 (HCT-15) was 87.9 µM, the GI50 (HL-60) was 49.9 µM (inactive) and the GI50 (HOP-92) was 38.8 µM (inactive). The GI50 (HT-29) was > 100 µM (inactive), the GI50 (IGROV-1) was 52.8 µM (inactive) and the GI50 (K562) was 53.1 µM (inactive). For the same compound, the GI50 (KM-20L2) was > 100 µM (inactive), the GI50 (LOX IMVI) was 51.3 µM (inactive) and the GI50 (LXFL 529) was > 100 µM (inactive). The GI50 (M14) was 44.5 µM (inactive), the GI50 (M19-MEL) was 63 µM (inactive) and the GI50 (MOLT-4) was > 100 µM (inactive). For the same compound, the GI50 (Malme-3M) was 31.5 µM (inactive), the GI50 (NCI-H226) was 36.8 µM (inactive) and the GI50 (NCI-H23) was 61.1 µM (inactive). The GI50 (NCI-H460) was > 100 µM (inactive), the GI50 (OVCAR-3) was 42 µM (inactive) and the GI50 (OVCAR-4) was 19 µM (inactive). For the same compound, the GI50 (OVCAR-5) was > 100 µM (inactive), the GI50 (OVCAR-8) was 37.2 µM (inactive) and the GI50 (RPMI-8226) was 36.6 µM (inactive). The GI50 (RXF 393) was 27.9 µM (inactive), the GI50 (RXF 631) was > 100 µM (inactive) and the GI50 (SF-268) was 42.7 µM (inactive). For the same compound, the GI50 (SF-295) was > 100 µM (inactive), the GI50 (SF-539) was 25.5 µM (inactive) and the GI50 (SK-MEL-28) was 72.9 µM (inactive). The GI50 (SK-MEL-2) was > 100 µM (inactive), the GI50 (SK-MEL-5) was 27.7 µM (inactive) and the GI50 (SN12C) was > 100 µM (inactive). For the same compound, the GI50 (SNB-19) was 75 µM (inactive), the GI50 (SNB-75) was 21.5 µM (inactive) and the GI50 (SNB-78) was 68.4 µM (inactive). For the same compound, the GI50 (SR) was 61 µM (inactive), the GI50 (SW-620) was 36.6 µM (inactive) and the GI50 (TK-10) was > 100 µM (inactive). The GI50 (U-251) was 43.3 µM (inactive), the GI50 (UACC-257) was > 100 µM (inactive) and the GI50 (UACC-62) was 46.2 µM (inactive). For the same compound, the GI50 (UO-31) was 49.7 µM (inactive) and the GI50 (XF498) was 27.8 µM (inactive).

Source: ChEMBL document CHEMBL1201862, “PubChem BioAssay data set” (2004)
